Values of other authors, collected in patent US20240173373A1, “NOVEL METHOD FOR THE PRODUCTION OF CONCENTRATED ALOE VERA COMPOSITIONS AND THERAPEUTIC USES FOR THE SAME” (Desert Harvest, Inc., priority 2021, published 2024).

Tested on: scald hyperalgesia
Conditions: compared with phenylbutazone

With “O-acetylated-D-mannan [O-acetylated-D-mannan (T-2-HN)]” as the substance, how does the “inhibitory effect on scald hyperalgesia” value read?
The value was “more marked inhibitory effect on scald hyperalgesia than phenylbutazone”.
